Experiment [1] concerns cultured human mast cells (CHMC). As to the kind of experiment: CHMC low cell density IgE activation: tryptase assay. The following applies: anti-IgE. Format: cell-based. The procedure, abridged:
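Cultured human mast cells (1000-1500 cells/well, donor-dependent) equilibrated 1 hr at 37° C, then stimulated with anti-IgE for 30 min at 37° C. Tryptase released into the supernatant is measured with a fluorogenic tryptase substrate after 30 min at room temperature.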

Experiment [2] has the same test system. As to the kind of experiment: CHMC low cell density ionomycin activation: tryptase assay. Format: cell-based.

pIC50: −log10 of the molar value. Structures can show the parent of a compound that is named as a salt. Bounds are passed on as bounds.

What is called pIC50 is the IC50 on a negative log10 scale, so that one unit is a factor of ten. `O=C(CNc1cccc(Nc2ncc(F)c(Nc3ccc4c(c3)OCCO4)n2)c1)N1CCNCC1` [R950197, N4-(3,4-Ethylenedioxyphenyl)-5-fluoro-N2-[3-(N-piperazino)carbonylmethyleneaminophenyl]-5-fluoro-2,4-pyrimidinediamine]: the negative-log IC50 (pIC50) was 6.27 in experiment [1] and less than 5.00 in experiment [2].
As for `O=C(CNc1cccc(Nc2ncc(F)c(Nc3ccc4c(c3)OCCO4)n2)c1)NCCNCc1ccccc1` [R950198, N2-[3-(N-Benzylamino)ethyleneaminocarbonylmethyleneaminophenyl]-N4-(3,4-ethylenedioxyphenyl)-5-fluoro-2,4-pyrimidinediamine], the pIC50 in experiment [1] is 6.39; in experiment [2], less than 5.00.
The like results for `O=C(CNc1cccc(Nc2ncc(F)c(Nc3ccc4c(c3)OCCO4)n2)c1)N(CCO)CCO` [R950199, N2-[3-(N,N′-Bis(2-N-hydroxyethyl)amino)carbonylmethyleneaminophenyl]-N4-(3,4-ethylenedioxyphenyl)-5-fluoro-2,4-pyrimidinediamine] were, in that order, 6.39 and less than 5.00.
The like results for `O=C(CNc1cccc(Nc2ncc(F)c(Nc3ccc4c(c3)OCCO4)n2)c1)NCCN1CCOCC1` [R950200, N4-(3,4-Ethylenedioxyphenyl)-5-fluoro-N2-[3-(N-2-morpholinoethyleneamino)carbonylmethyleneaminophenyl]-2,4-pyrimidinediamine] were, in that order, 6.61 and less than 5.00.
The like results for `CSc1nc2ccc(Nc3ncc(F)c(Nc4ccc5c(c4)OCCO5)n3)cc2s1` [R950201, N4-(3,4-Ethylenedioxyphenyl)-5-fluoro-N2-[2-(methylthio)-1,3-benzothiaz-6-yl]-2,4-pyrimidinediamine] were, in that order, 6.58 and less than 5.00.
For `CSc1nc2ccc(Nc3ncc(F)c(Nc4ccc5nc(SC)sc5c4)n3)cc2s1` [R950202, N2,N4-Bis[2-(methylthio)-1,3-benzothiaz-6-yl]-5-fluoro-2,4-pyrimidinediamine], the figures for the negative-log IC50 (pIC50) in experiment [1] and in experiment [2] were 5.49 and less than 5.00, respectively.
The like results for `OCCNc1cccc(Nc2ncc(F)c(Nc3ccc4c(c3)OCCO4)n2)c1` [R950208, N4-(3,4-Ethylenedioxyphenyl)-5-fluoro-N2-[3-(hydroxyethyleneamino)phenyl]-2,4-pyrimidinediamine] were, in that order, 6.57 and less than 5.00.
The like results for `CCOC(=O)CNc1cccc(Nc2ncc(F)c(Nc3cccc(O)c3)n2)c1` [R950215, N2-(Ethoxycarbonylmethyleneaminophenyl)-5-fluoro-N4-(3-hydroxyphenyl)-2,4-pyrimidinediamine] were, in that order, 6.39 and less than 5.00.
As to `CCOC(=O)CNc1cccc(Nc2ncc(F)c(Nc3cccc(O)c3)n2)c1` [R950216], the pIC50 in experiment [1] (Homo sapiens, Mast cell) is 6.49; in experiment [2] (Homo sapiens, Mast cell) it was less than 5.00.
Regarding `O=C(CNc1cccc(Nc2ncc(F)c(Nc3cccc(O)c3)n2)c1)N1CCOCC1` [R950221, 5-Fluoro-N4-(3-hydroxyphenyl)-N2-[3-(N-morpholino)carbonylmethyleneaminophenyl]-2,4-pyrimidinediamine], the pIC50 is 6.20 in experiment [1] and less than 5.00 in experiment [2].
The like results for `O=C(CNc1cccc(Nc2ncc(F)c(Nc3cccc(O)c3)n2)c1)N1CCNCC1` [R950222, 5-Fluoro-N4-(3-hydroxyphenyl)-N2-[3-(N-piperazino)carbonylmethyleneaminophenyl]-2,4-pyrimidinediamine] were, in that order, 6.06 and less than 5.00.
The like results for `CN1CCN(C(=O)CNc2cccc(Nc3ncc(F)c(Nc4cccc(O)c4)n3)c2)CC1` [R950223, 5-Fluoro-N4-(3-hydroxyphenyl)-N2-[3-[N—(N-methyl)piperazino]carbonylmethyleneaminophenyl]-2,4-pyrimidinediamine] were, in that order, 6.12 and less than 5.00.
The like results for `O=C(CNc1cccc(Nc2ncc(F)c(Nc3cccc(O)c3)n2)c1)NCCN1CCOCC1` [R950226] were, in that order, 5.86 and less than 5.00.
In the case of `CCOC(=O)CNc1cccc(Nc2ncc(F)c(Nc3cccc(NCCO)c3)n2)c1` [R950229, N2-(Ethoxycarbonylmethyleneaminophenyl)-5-fluoro-N4-[3-(2-hydroxyethylamino)phenyl]-2,4-pyrimidinediamine], the values for the negative-log IC50 (pIC50) in experiment [1] and in experiment [2] were 6.01 and less than 5.00, respectively.
With `O=C(CNc1cccc(Nc2ncc(F)c(Nc3cccc(NCCO)c3)n2)c1)NCCO` [R950231, 5-Fluoro-N4-[3-(2-hydroxyethylamino)phenyl]-N2-[3-[N-(2-hydroxyethylamino)]carbonylmethyleneaminophenyl]-2,4-pyrimidinediamine], the results for the pIC50 in experiment [1] and in experiment [2] were 5.71 and less than 5.00, respectively.
The like results for `CNCCNC(=O)CNc1cccc(Nc2ncc(F)c(Nc3cccc(NCCO)c3)n2)c1` [R950234, 5-Fluoro-N4-[3-(2-hydroxyethylamino)phenyl]-N2-[3-[N-(2-methylamino)ethylamino]carbonylmethyleneaminophenyl]-2,4-pyrimidinediamine] were, in that order, 5.00 and less than 5.00.
The like results for `O=C(CNc1cccc(Nc2ncc(F)c(Nc3cccc(NCCO)c3)n2)c1)NCCNCc1ccccc1` [R950235, N2-[3-[N-(2-N-Benzylamino)ethylamino]carbonylmethyleneaminophenyl]-5-fluoro-N4-[3-(2-hydroxyethylamino)phenyl]-2,4-pyrimidinediamine] were, in that order, 5.39 and less than 5.00.
Take `O=C(CNc1cccc(Nc2ncc(F)c(Nc3cccc(NCCO)c3)n2)c1)N1CCOCC1` [R950236, 5-Fluoro-N4-[3-(2-hydroxyethylamino)phenyl]-N2-[3-(N-morpholino)carbonylmethyleneaminophenyl]-2,4-pyrimidinediamine]: the pIC50 in experiment [1] was 6.02; in experiment [2], less than 5.00.
`CN(C)CCCNC(=O)CNc1cccc(Nc2ncc(F)c(Nc3cccc(NCCO)c3)n2)c1` [R950237, N2-[3-(3-N,N-Dimethylaminopropyl)aminocarbonylmethyleneaminophenyl]-5-fluoro-N4-[3-(2-hydroxyethylamino)phenyl]-2,4-pyrimidinediamine]: the pIC50 in experiment [1] and in experiment [2] was less than 5.00 in each case.
For the compound `O=C(CNc1cccc(Nc2ncc(F)c(Nc3cccc(NCCO)c3)n2)c1)NCCN1CCOCC1` [R950239, 5-Fluoro-N4-[3-(2-hydroxyethylamino)phenyl]-N2-[3-(N-morpholinoethyleneamino)carbonylmethyleneaminophenyl]-2,4-pyrimidinediamine], the pIC50 in experiment [1] was 5.69; in experiment [2] it was less than 5.00.
The like results for `CN1CCN(C(=O)CNc2cccc(Nc3ncc(F)c(Nc4cccc(NCCO)c4)n3)c2)CC1` [R950240, N4-[3-(2-Hydroxyethyleamino)phenyl]-N2-[3-(N—(N-methyl)-piperazino)carbonylmethyleneaminophenyl]-5-fluoro-2,4-pyrimidinediamine] were, in that order, 5.75 and less than 5.00.
The like results for `O=C(CNc1cccc(Nc2ncc(F)c(Nc3cccc(NCCO)c3)n2)c1)N1CCNCC1` [R950241, N4-[3-(2-Hydroxyethyleamino)phenyl]-N2-[3-(N-piperazino)-carbonylmethyleneaminophenyl]-5-fluoro-2,4-pyrimidinediamine] were, in that order, 5.48 and less than 5.00.
The like results for `O=[N+]([O-])c1cccc(Nc2nc(Nc3ccc4c(c3)NCCO4)ncc2F)c1` [R950253] were, in that order, 6.16 and less than 5.00.
`CNC(=O)COc1cccc(Nc2ncc(F)c(Nc3cccc(N)c3)n2)c1` [R950262, N4-(3-Aminophenyl)-5-fluoro-N2-[3-(N-methylamino)carbonylmethyleneoxyphenyl]-2,4-pyrimidinediamine HCl salt]: the pIC50 in experiment [1] (HCl salt) was 6.55; in experiment [2] (HCl salt), less than 5.00.
Turning to `CNC(=O)COc1cccc(Nc2ncc(F)c(Nc3cccc(N)c3)n2)c1` [R950263, N4-(3-Aminophenyl)-5-fluoro-N2-[3-(N-methylamino)carbonylmethyleneoxyphenyl]-2,4-pyrimidinediamine], the figures for the negative logarithm of the IC50 (pIC50) in experiment [1] and in experiment [2] were 6.55 and 5.48, respectively.
For the compound `CNC(=O)COc1cccc(Nc2ncc(F)c(Nc3cccc(N(C)C)c3)n2)c1` [R950264, N4-(3-Bis-N-methylaminophenyl)-5-fluoro-N2-[3-(N-methylamino)carbonylmethyleneoxyphenyl]-2,4-pyrimidinediamine], the negative logarithm of the IC50 (pIC50) was 6.70 in experiment [1] and less than 5.00 in experiment [2].
Take `CNC(=O)COc1cccc(Nc2ncc(F)c(Nc3cccc(NC)c3)n2)c1` [R950267, N4-(3-N-Methylaminophenyl)-5-fluoro-N2-[3-(N-methylamino)carbonylmethyleneoxyphenyl]-2,4-pyrimidinediamine]: the negative logarithm of the IC50 (pIC50) was 6.74 in experiment [1] and less than 5.00 in experiment [2].
In the case of `CCOC(=O)COc1cccc(Nc2ncc(F)c(Nc3ccc(O)c(C(=O)O)c3)n2)c1` [R950290, N4-(3-Carboxy-4-hydroxyphenyl)-5-fluoro-N2-[3-ethoxycarbonylmethyleneoxyphenyl]-2,4-pyrimidinediamine], the negative logarithm of the IC50 (pIC50) in experiment [1] and in experiment [2] was less than 5.00 each time.
Regarding `O=C(O)COc1cccc(Nc2ncc(F)c(Nc3ccc(O)c(C(=O)O)c3)n2)c1` [R950291, N4-(3-Carboxy-4-hydroxyphenyl)-5-fluoro-N2-[3-carboxymethyleneoxyphenyl]-2,4-pyrimidinediamine], the negative-log IC50 (pIC50) in experiment [1] and in experiment [2] was less than 5.00 throughout.
`CCOC(=O)COc1cccc(Nc2ncc(F)c(Nc3ccc(O)c(C(=O)OC)c3)n2)c1` [R950293, N4-(3-Methoxycarbonyl-4-hydroxyphenyl)-5-fluoro-N2-[3-ethoxycarbonylmethyleneoxyphenyl]-2,4-pyrimidinediamine]: the pIC50 is 5.43 in experiment [1] and 5.09 in experiment [2].
For `CCOC(=O)COc1cccc(Nc2ncc(F)c(Nc3ccc4c(c3)C(OC)CCO4)n2)c1` (centres unmarked) [R950294, N4-(4-Methoxy-3,4-dihydro-2H-1-benzopyran-6-yl)-5-fluoro-N2-[3-ethoxycarbonylmethyleneoxyphenyl]-2,4-pyrimidinediamine], the values for the pIC50 in experiment [1] and in experiment [2] were 5.70 and 5.10, respectively.

The values are drawn from patent US9499493B2, “2,4-pyrimidinediamine compounds and their uses” (Rigel Pharmaceuticals, Inc., priority 2002, dated 2016).
